Results from ChEMBL document CHEMBL1201862, “PubChem BioAssay data set” (2004).
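Briefly, cells in 96-well plates were exposed to five compound concentrations for 48 h, and endpoints were estimated by linear interpolation. GI50 = concentration required for 50% inhibition of growth.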 Calls of active or inactive are those of the source. Cut-off read from the data, not from the text of the source: active = GI50 up to about 1.1 µM and inactive = higher.

Key:
Test in all cases: NCI tumour cell line growth inhibition, 48 h
786-0 = tested on: 786-0
BT-549 = tested on: BT-549
CAKI-1 = tested on: CAKI-1
CCRF-CEM = tested on: CCRF-CEM
COLO 205 = tested on: COLO 205
DU-145 = tested on: DU-145
EKVX = tested on: EKVX
HL-60 = tested on: HL-60
HOP-92 = tested on: HOP-92
KM12 = tested on: KM12
MCF7 = tested on: MCF7
MDA-N = tested on: MDA-N
NCI-H522 = tested on: NCI-H522
OVCAR-5 = tested on: OVCAR-5
RPMI-8226 = tested on: RPMI-8226
SK-MEL-5 = tested on: SK-MEL-5
SN12C = tested on: SN12C
SW-620 = tested on: SW-620
TK-10 = tested on: TK-10
SK-OV-3 = tested on: SK-OV-3

Row | Structure (SMILES) | GI50 (786-0) | GI50 (BT-549) | GI50 (CAKI-1) | GI50 (CCRF-CEM) | GI50 (COLO 205) | GI50 (DU-145) | GI50 (EKVX) | GI50 (HL-60) | GI50 (HOP-92) | GI50 (KM12) | GI50 (MCF7) | GI50 (MDA-N) | GI50 (NCI-H522) | GI50 (OVCAR-5) | GI50 (RPMI-8226) | GI50 (SK-MEL-5) | GI50 (SN12C) | GI50 (SW-620) | GI50 (TK-10) | GI50 (SK-OV-3)
1 | O=C1OC(C2Cc3ccc4ccccc4c3C2=O)c2ccccc21 (centres undefined) | 46.3 µM (inactive) | 37 µM (inactive) | 61.9 µM (inactive) | 31 µM (inactive) | > 100 µM (inactive) | > 100 µM (inactive) | 29.6 µM (inactive) | 50 µM (inactive) | 49.8 µM (inactive) | 28.3 µM (inactive) | 42.8 µM (inactive) | 57.5 µM (inactive) | 36.9 µM (inactive) | > 100 µM (inactive) | 25.9 µM (inactive) | 22 µM (inactive) | 93.5 µM (inactive) | 37.8 µM (inactive) | 60 µM (inactive) | –
2 | O=C(Sc1c(-c2ccccc2)c(=O)n(-c2ccccc2)c(=S)n1-c1ccccc1)c1ccccc1 | > 100 µM (inactive) | 56.1 µM (inactive) | > 100 µM (inactive) | 15.8 µM (inactive) | > 100 µM (inactive) | > 100 µM (inactive) | > 100 µM (inactive) | 33.2 µM (inactive) | 32.1 µM (inactive) | > 100 µM (inactive) | 51.6 µM (inactive) | 84.5 µM (inactive) | 36.1 µM (inactive) | > 100 µM (inactive) | 41.8 µM (inactive) | 33.9 µM (inactive) | > 100 µM (inactive) | 28.6 µM (inactive) | > 100 µM (inactive) | > 100 µM (inactive)
3 | c1cc(CSP234N5CCN2CCN3CCN4CC5)ccc1CSP123N4CCN1CCN2CCN3CC4 | > 100 µM (inactive) | > 100 µM (inactive) | > 100 µM (inactive) | 27.4 µM (inactive) | > 100 µM (inactive) | > 100 µM (inactive) | > 100 µM (inactive) | 0.465 µM (active) | 92.3 µM (inactive) | > 100 µM (inactive) | > 100 µM (inactive) | > 100 µM (inactive) | 52 µM (inactive) | > 100 µM (inactive) | 16.4 µM (inactive) | > 100 µM (inactive) | > 100 µM (inactive) | > 100 µM (inactive) | > 100 µM (inactive) | –
4 | CCOC(=O)/C(C(=O)NC(C)C)=C(/N)N1CCOCC1 | > 100 µM (inactive) | > 100 µM (inactive) | > 100 µM (inactive) | > 100 µM (inactive) | > 100 µM (inactive) | > 100 µM (inactive) | > 100 µM (inactive) | > 100 µM (inactive) | > 100 µM (inactive) | > 100 µM (inactive) | > 100 µM (inactive) | > 100 µM (inactive) | > 100 µM (inactive) | > 100 µM (inactive) | > 100 µM (inactive) | – | > 100 µM (inactive) | > 100 µM (inactive) | > 100 µM (inactive) | > 100 µM (inactive)
5 | O=c1c2c(nc3[nH]ccn13)CCC2 | > 10 µM (inactive) | > 10 µM (inactive) | > 10 µM (inactive) | > 10 µM (inactive) | > 10 µM (inactive) | > 10 µM (inactive) | > 10 µM (inactive) | > 10 µM (inactive) | > 10 µM (inactive) | > 10 µM (inactive) | > 10 µM (inactive) | > 10 µM (inactive) | – | > 10 µM (inactive) | > 10 µM (inactive) | > 10 µM (inactive) | > 10 µM (inactive) | > 10 µM (inactive) | > 10 µM (inactive) | > 10 µM (inactive)
6 | C=CCn1c(-c2ccc(Cl)cc2)cs/c1=N\c1ccccc1OC | > 100 µM (inactive) | > 52.5 µM (inactive) | > 45.2 µM (inactive) | 8.55 µM (inactive) | 35.8 µM (inactive) | > 100 µM (inactive) | – | 14.9 µM (inactive) | > 65 µM (inactive) | 15.8 µM (inactive) | 27.4 µM (inactive) | 2.1 µM (inactive) | – | > 59.3 µM (inactive) | 5.6 µM (inactive) | 2.31 µM (inactive) | > 100 µM (inactive) | 60 µM (inactive) | > 100 µM (inactive) | > 45.2 µM (inactive)
7 | CC(O)C1(CNc2cc(Cl)nc(N)n2)CCCCC1 (centres undefined) | > 100 µM (inactive) | 70.1 µM (inactive) | > 100 µM (inactive) | 97.5 µM (inactive) | > 100 µM (inactive) | > 100 µM (inactive) | 58.1 µM (inactive) | 89.7 µM (inactive) | 69.3 µM (inactive) | 85.3 µM (inactive) | 82.2 µM (inactive) | > 100 µM (inactive) | 55.7 µM (inactive) | > 100 µM (inactive) | 48.9 µM (inactive) | 45.6 µM (inactive) | 82.6 µM (inactive) | > 100 µM (inactive) | > 100 µM (inactive) | > 100 µM (inactive)
8 | CNC1(c2cc3ccccc3s2)CCCCC1 | 19.2 µM (inactive) | 67 µM (inactive) | 42.1 µM (inactive) | < 0.01 µM (active) | 18.9 µM (inactive) | 40.1 µM (inactive) | 0.433 µM (active) | < 0.01 µM (active) | 14.3 µM (inactive) | 17.9 µM (inactive) | 29.5 µM (inactive) | 19.9 µM (inactive) | 12.7 µM (inactive) | 20.5 µM (inactive) | – | 16.3 µM (inactive) | 38.1 µM (inactive) | < 0.01 µM (active) | 44.2 µM (inactive) | 39 µM (inactive)
9 | N#CC(/N=N/c1ccccc1)c1nc2ccccc2o1 (centres undefined) | 21.8 µM (inactive) | 20.7 µM (inactive) | 31.9 µM (inactive) | 34.6 µM (inactive) | 19.3 µM (inactive) | 26.5 µM (inactive) | 20.2 µM (inactive) | > 100 µM (inactive) | 15 µM (inactive) | 49.7 µM (inactive) | 59.3 µM (inactive) | 95.7 µM (inactive) | 27.2 µM (inactive) | 56.5 µM (inactive) | 23.6 µM (inactive) | 86.9 µM (inactive) | 83.4 µM (inactive) | – | 24.5 µM (inactive) | 23.7 µM (inactive)
10 | CSc1nc(C)c2c(n1)SCC2 | > 10 µM (inactive) | > 10 µM (inactive) | > 10 µM (inactive) | > 10 µM (inactive) | > 10 µM (inactive) | > 10 µM (inactive) | > 10 µM (inactive) | > 10 µM (inactive) | > 10 µM (inactive) | > 10 µM (inactive) | > 10 µM (inactive) | > 10 µM (inactive) | – | > 10 µM (inactive) | > 10 µM (inactive) | > 10 µM (inactive) | > 10 µM (inactive) | > 10 µM (inactive) | > 10 µM (inactive) | > 10 µM (inactive)
11 | CN(C)c1nc2nonc2nc1Nc1ccccc1 | > 100 µM (inactive) | > 100 µM (inactive) | – | > 100 µM (inactive) | > 100 µM (inactive) | > 100 µM (inactive) | > 100 µM (inactive) | > 100 µM (inactive) | > 100 µM (inactive) | – | > 100 µM (inactive) | > 100 µM (inactive) | > 100 µM (inactive) | > 100 µM (inactive) | > 100 µM (inactive) | > 100 µM (inactive) | > 100 µM (inactive) | > 100 µM (inactive) | > 100 µM (inactive) | > 100 µM (inactive)
